Here are results for ten compounds from patent US20240279218A1 (Hoffmann-La Roche Inc., priority 2016, published 2024).

For experiment [1], the target named is T1, h-GABA-A α5β3γ2 (Homo sapiens (Human), UniProt P18507+P31644). The experiment is described as follows: [3H]flumazenil competition binding assay, membranes of HEK293 cells expressing human GABAA receptors. As to conditions: displacement of [3H]flumazenil 0.5 nM, HEK293 cells expressing human receptors, mean of two determinations; read-out: Ki h-GABA-A α5β3γ2. The procedure:
The affinity of compounds at GABAA receptor subtypes was measured by competition for [3H]flumazenil (85 Ci/mmol; Roche) binding to HEK293 cells expressing rat (stably transfected) or human (transiently transfected) receptors of composition α1β3γ2, α2β3γ2, α3β3γ2 and α5β3γ2.
Cell pellets were suspended in Krebs-tris buffer (4.8 mM KCl, 1.2 mM CaCl2, 1.2 mM MgCl2, 120 mM NaCl, 15 mM Tris; pH 7.5; binding assay buffer), homogenized by polytron for ca. 20 sec on ice and centrifuged for 60 min at 4° C. (50000 g; Sorvall, rotor: SM24=20000 rpm). The cell pellets were resuspended in Krebs-tris buffer and homogenized by polytron for ca. 15 sec on ice. Protein was measured (Bradford method, Bio-Rad) and aliquots of 1 mL were prepared and stored at −80° C.
Assays were incubated to equilibrium for 1 hour at 4° C. and harvested onto GF/C uni-filters (Packard) by filtration using a Packard harvester and washing with ice-cold wash buffer (50 mM Tris; pH 7.5). After drying, filter-retained radioactivity was detected by liquid scintillation counting. Ki values were calculated using Excel-Fit (Microsoft) and are the means of two determinations.

In experiment [2] the target is T1, h-GABA-A α5β3γ2. The experiment is described as follows: Two-electrode voltage clamp electrophysiology in Xenopus oocytes expressing GABAA receptors, modulation of GABA EC20 current. In kind it is cell-based. The settings on record: Xenopus oocytes; for Efficacy (GABA) %: % modulation of GABA EC20 = 100*(Fold increase−1); for Fold increase h-GABA-A α5β3γ2 oocyte: GABA EC20, test compound at approx. 30 fold its Ki. The procedure: Xenopus laevis oocytes at maturation stages V-VI were used for the expression of cloned mRNA encoding GABAA receptor subunits. Oocytes ready for RNA micro-injection were bought from Ecocyte, Castrop-Rauxel, Germany and stored in modified Barth's medium (composition in mM: NaCl 88, KCl 1, NaHCO32.4, HEPES 10, MgSO4 0.82, CaNO3 0.33, CaCl2) 0.33, pH=7.5) at 20° C. until the experiment.
Oocytes were plated in 96-well plates to be used in an automated instrument (Robo-ocyte, MultiChannelSystems, Reutlingen, Germany) for microinjection and electrophysiological recordings. Approximately 50 nl of an aqueous solution containing the RNA transcripts for the subunits of the desired GABAA receptor was injected into each oocyte. RNA concentrations ranged between 0.3 and 16 ng/μl/subunit and were adjusted in pilot experiments to obtain GABA responses of a suitable size and a maximal effect of the reference modulator, Beta-CCM (β-CCM), a betacarboline negative allosteric modulator (NAM) at the GABAA receptor benzodiazepine (BZD) binding site or Midazolam, a benzodiazepine positive allosteric modulator (PAM) at the GABAA receptor benzodiazepine (BZD) binding site. The concentration of the γ2 subunit encoding RNA usually was 5-to 10-fold higher than the RNAs encoding the other subunits. Oocytes were kept in modified Barth's medium (composition in mM: NaCl 88, KCl 1, NaHCO3 4, HEPES 10, MgSO4 0.82, CaNO3 0.33, CaCl2 0.33, pH=7.5) at 20° C. until the experiment.
Electrophysiological experiments were performed on days 3 to 5 after the micro-injection of mRNA. During the experiment the oocytes were constantly superfused by a solution containing (in mM) NaCl 90, KCl 1, HEPES 5, MgCl2 1, CaCl2 1 (pH 7.4). Oocytes were impaled by two glass microelectrodes (resistance: 0.4 MΩ) which were filled with a solution containing KCl 1M+K-acetate 1.5 M and voltage-clamped to −80 mV. The recordings were performed at room temperature using the Roboocyte two-electrode voltage clamp system (Multichannelsystem). After an initial equilibration period of 1.5 min GABA was added for 1.5 min at a concentration evoking approximately 20% of a maximal current response (EC20). After another rest interval of 2.5 min GABA was again added evoking a response of similar amplitude and shape. […] Current traces were recorded at a digitization rate of 10 Hz during and shortly before and after the GABA application.
Each compound and concentration was tested on at least 3 oocytes.
For the analysis, the digitized current traces of the first and second GABA response were superimposed and, if necessary, rescaled to equal maximal amplitudes. The ratio between the two responses during the time interval of test compound application was calculated point by point. The extremum of the resulting “ratio trace” was taken as the efficacy (“Fold increase”) of the compound expressed as “% modulation of GABA EC20” (100*(Fold increase−1)).
For orientation: Two-electrode voltage clamp holds a large cell at a set potential and records current.

Consider `Cc1ccc(-c2noc(C)c2COc2cnc(C(=O)NC3CCOC3)cn2)cn1` (stereo in doubt) [Example 92, (S)-5-((5-Methyl-3-(6-methylpyridin-3-yl)isoxazol-4-yl)methoxy)-N-(tetrahydrofuran-3-yl)pyrazine-2-carboxamide], for which the Ki (in general, the equilibrium dissociation constant of an inhibitor or competing ligand from its target) on h-GABA-A α5β3γ2 [1] came out at 13.2 nM. Further, at h-GABA-A α5β3γ2 [2], the “Efficacy (GABA) %” value is listed as 67% and the “Fold increase h-GABA-A α5β3γ2 oocyte” value is recorded as 1.67.
With `Cc1ccc(-c2noc(C)c2COc2ccc(C(=O)NC3CCOCC3)cn2)cn1` [Example 1, 6-((5-methyl-3-(6-methyl-3-pyridyl)isoxazol-4-yl)methoxy)-N-tetrahydropyran-4-yl-pyridine-3-carboxamide], the Ki on h-GABA-A α5β3γ2 [1] worked out at 4.8 nM. Moreover, on h-GABA-A α5β3γ2 [2], the “Efficacy (GABA) %” value turned out to be 42% and the “Fold increase h-GABA-A α5β3γ2 oocyte” value is 1.42.
For `Cc1ccc(-c2noc(C)c2COc2ccc(C(=O)NCC3CC3)cn2)cn1` [Example 2, N-(cyclopropylmethyl)-6-((5-methyl-3-(6-methyl-3-pyridyl)isoxazol-4-yl)methoxy)pyridine-3-carboxamide], in that order: 8.3 nM, 63% and 1.63.
For `CCNC(=O)c1ccc(OCc2c(-c3ccc(C)nc3)noc2C)nc1` [Example 3, N-ethyl-6-((5-methyl-3-(6-methyl-3-pyridyl)isoxazol-4-yl)methoxy)pyridine-3-carboxamide], in that order: 1.4 nM, 41% and 1.41.
`CCC[C@@H](CO)NC(=O)c1ccc(OCc2c(-c3ccc(C)nc3)noc2C)nc1` [Example 4, (S)—N-(1-hydroxypentan-2-yl)-6-((5-methyl-3-(6-methylpyridin-3-yl)isoxazol-4-yl)methoxy)nicotinamide]: the inhibitory constant (Ki) on h-GABA-A α5β3γ2 [1] amounted to 7.3 nM. Also, on h-GABA-A α5β3γ2 [2], the “Efficacy (GABA) %” value came out at 150% and the “Fold increase h-GABA-A α5β3γ2 oocyte” value was 2.5.
As for `CCC[C@@H](CO)NC(=O)c1ccc(OCc2c(-c3ccc(C)nc3)noc2C2CC2)nc1` [Example 5, 6-((5-cyclopropyl-3-(6-methyl-3-pyridyl)isoxazol-4-yl)methoxy)-N-((1S)-1-(hydroxymethyl)butyl)pyridine-3-carboxamide], the Ki at h-GABA-A α5β3γ2 [1] came to 58.6 nM. Moreover, on h-GABA-A α5β3γ2 [2], the “Efficacy (GABA) %” value came to 245% and the “Fold increase h-GABA-A α5β3γ2 oocyte” value was determined as 3.45.
On to `Cc1ccc(-c2noc(C3CC3)c2COc2ccc(C(=O)NC3CCOCC3)cn2)cn1` [Example 6, 6-((5-cyclopropyl-3-(6-methyl-3-pyridyl)isoxazol-4-yl)methoxy)-N-tetrahydropyran-4-yl-pyridine-3-carboxamide], for which the inhibitory constant (Ki) on h-GABA-A α5β3γ2 [1] is 54.1 nM. On h-GABA-A α5β3γ2 [2], the “Efficacy (GABA) %” value amounted to 167% and the “Fold increase h-GABA-A α5β3γ2 oocyte” value came out at 2.67.
On the same counts, the results for `CCC[C@@H](CO)NC(=O)c1ccc(OCc2c(-c3ccc(C)nc3)noc2C)nn1` [Example 7, (S)—N-(1-hydroxypentan-2-yl)-6-((5-methyl-3-(6-methylpyridin-3-yl)isoxazol-4-yl)methoxy)pyridazine-3-carboxamide] are 25.6 nM, 102% and 2.02.
As for `Cc1ccc(-c2noc(C)c2COc2ccc(C(=O)NC3CCOCC3)nn2)cn1` [Example 8, 6-((5-methyl-3-(6-methylpyridin-3-yl)isoxazol-4-yl)methoxy)-N-(tetrahydropyran-4-yl)pyridazine-3-carboxamide], the Ki at h-GABA-A α5β3γ2 [1] came out at 8.7 nM. At h-GABA-A α5β3γ2 [2], the “Efficacy (GABA) %” value was determined as 97% and the “Fold increase h-GABA-A α5β3γ2 oocyte” value was 1.97.
On to `Cc1ccc(-c2noc(C)c2COc2cc3c(cn2)C(=O)N(CC(C)C)C3)cn1` [Example 9, 2-isobutyl-6-((5-methyl-3-(6-methylpyridin-3-yl)isoxazol-4-yl)methoxy)-1H-pyrrolo[3,4-c]pyridin-3(2H)-one], for which the Ki on h-GABA-A α5β3γ2 [1] came to 13.7 nM. At h-GABA-A α5β3γ2 [2], the “Efficacy (GABA) %” value is 62% and the “Fold increase h-GABA-A α5β3γ2 oocyte” value was 1.62.
